According to patent US11419921B2, “Methods of treating neurological disorders” (EnClear Therapies, Inc., priority 2018, dated 2022):

Columns and labels:
(GR)10 [1] = experiment: (GR)10 digestion with immobilized proteases (NHS-activated agarose resin) in PBS; format: biochemical; settings: normalized
Procedure: (§1) Protease solutions were prepared at 2 mg/mL in sterile PBS with calcium, magnesium and 200 μL ([…]) were applied to 100 μL of pre-washed NHS-activated agarose resin in 0.8 mL centrifuge columns. Reactions were left 1.5 hour at room temperature with end-to-end mixing, after which resins were washed with 12 resin volumes of PBS. Unreacted sites were blocked with 500 μL of 1M ethanolamine for 15 minutes at room temperature and resins were further washed with 24 resin volumes. Resins were stored at 4 degrees in 500 μL of PBS containing 0.05% sodium azide as preservative.
110 μL of 50 μM (GR)10 dipeptide repeats prepared in PBS were added to each immobilized protease and incubated 5 minutes at room temperature with end-to-end mixing. Columns were spun down 1 minute at 1,000 Xg to recover digested GR dipeptides. Columns were washed with 110 μL of PBS to increase (GR)10 recovery. This procedure was repeated with 60 minutes digestion time. 100 μL of each samples were transferred to a new tube and 5 μL of 10% TFA followed by 300 μL of Dilution Solution were added. The reaction mixtures were analyzed by LC/MS to determine the concentration of GR repeats of different lengths.

(GR)10 [2] = experiment: (GR)10 digestion with immobilized proteases in human cerebrospinal fluid (CSF); format: biochemical; settings: immobilized enzyme
Procedure: as §1
200 μM of (GR)10 were diluted in human cerebrospinal fluid (CSF) and 400 μL were applied to each immobilized proteases. The reaction was incubated 5 minutes at room temperature with end-to-end mixing. Columns were spun down 1 minute at 1,000 Xg to recover digested GR dipeptides. Columns were washed with 12 resin volumes of PBS. The procedure was repeated with 60 minutes digestion time. 100 μL of each samples were transferred to a clean tube, flash-frozen and subsequently used for LC/MS quantification of GR repeats of different lengths. The remaining 300 μL of each samples were flash-frozen and used to assess neuron toxicity.
(GR)10 was digested with exemplary immobilized enzymes as described above in the subsection titled “(GR)10 digestion with immobilized proteases in CSF” of Example 3. Clostripain experiments were conducted with and without DTT activation (no DTT during digestion). The results obtained after 5 and 60 minutes of reaction time are presented in Table 25 and shown in FIG. 5 (commercial and in-house immobilized trypsin), FIG. 6 (immobilized elastase, FIG. 7A (immobilized clostripain without DTT) and FIG. 7 (immobilized clostripain with 2.5 mM DTT).

[3] = resin wash from 60 min reaction

Elastase: protease that cleaves at the carboxyl side of small hydrophobic amino acids; in Table 22 also immobilized on agarose resin
33.1 µM: (GR)1 ((GR)10 [1]; Immobilized - 5 min reaction)
0.0 µM: (GR)3 ((GR)10 [1]; Immobilized - 5 min reaction) | (GR)4 ((GR)10 [1]; Immobilized - 5 min reaction) | (GR)5 ((GR)10 [1]; Immobilized - 5 min reaction) | (GR)6 ((GR)10 [1]; Immobilized - 5 min reaction) | (GR)8 ((GR)10 [1]; Immobilized - 5 min reaction) | (GR)10 ((GR)10 [1]; Immobilized - 5 min reaction) | (GR)2 ((GR)10 [1]; immobilized - 60 min reaction) | (GR)3 ((GR)10 [1]; immobilized - 60 min reaction) | (GR)4 ((GR)10 [1]; immobilized - 60 min reaction) | (GR)5 ((GR)10 [1]; immobilized - 60 min reaction) | (GR)6 ((GR)10 [1]; immobilized - 60 min reaction) | (GR)8 ((GR)10 [1]; immobilized - 60 min reaction) | (GR)10 ((GR)10 [1]; immobilized - 60 min reaction) | (GR)2 ((GR)10 [1]; resin wash from 5 min reaction) | (GR)3 ((GR)10 [1]; resin wash from 5 min reaction) | (GR)4 ((GR)10 [1]; resin wash from 5 min reaction) | (GR)5 ((GR)10 [1]; resin wash from 5 min reaction) | (GR)6 ((GR)10 [1]; resin wash from 5 min reaction) | (GR)8 ((GR)10 [1]; resin wash from 5 min reaction) | (GR)10 ((GR)10 [1]; resin wash from 5 min reaction) | (GR)2 ((GR)10 [1]; [3]) | (GR)3 ((GR)10 [1]; [3]) | (GR)4 ((GR)10 [1]; [3]) | (GR)5 ((GR)10 [1]; [3]) | (GR)6 ((GR)10 [1]; [3]) | (GR)8 ((GR)10 [1]; [3]) | (GR)10 ((GR)10 [1]; [3]) | (GR)6 (normalized uM) ((GR)10 [2]; 5 min reaction) | (GR)8 (normalized uM) ((GR)10 [2]; 5 min reaction) | (GR)10 (normalized uM) ((GR)10 [2]; 5 min reaction) | (GR)3 (normalized uM) ((GR)10 [2]; 60 min reaction) | (GR)4 (normalized uM) ((GR)10 [2]; 60 min reaction) | (GR)5 (normalized uM) ((GR)10 [2]; 60 min reaction) | (GR)6 (normalized uM) ((GR)10 [2]; 60 min reaction) | (GR)8 (normalized uM) ((GR)10 [2]; 60 min reaction) | (GR)10 (normalized uM) ((GR)10 [2]; 60 min reaction)
20.7 µM: (GR)3 (normalized uM) ((GR)10 [2]; 5 min reaction)
10.5 µM: (GR)5 (normalized uM) ((GR)10 [2]; 5 min reaction)
22 µM: (GR)4 (normalized uM) ((GR)10 [2]; 5 min reaction)
29.4 µM: (GR)2 (normalized uM) ((GR)10 [2]; 5 min reaction)
57.4 µM: (GR)1 (normalized uM) ((GR)10 [2]; 5 min reaction)
13.8 µM: (GR)1 ((GR)10 [1]; resin wash from 5 min reaction)
200.3 µM: (GR)1 (normalized uM) ((GR)10 [2]; 60 min reaction)
48.1 µM: (GR)1 ((GR)10 [1]; immobilized - 60 min reaction)
6 µM: (GR)2 (normalized uM) ((GR)10 [2]; 60 min reaction)
18.5 µM: (GR)1 ((GR)10 [1]; [3])
4.8 µM: (GR)2 ((GR)10 [1]; Immobilized - 5 min reaction)
